# Measured values taken from patent publication US9399904B2, “Oil recovery system and method” (SHELL OIL COMPANY, priority 2013, dated 2016).
# Assay: Dynamic viscosity of crude/dimethyl sulfide blends, closed cup rheometer
# Format: physicochemical
# Experimental: The quality of dimethyl sulfide as an oil recovery agent based on the crude oil viscosity lowering properties of dimethyl sulfide was evaluated. Three crude oils having widely disparate viscosity characteristics—an African Waxy crude, a Middle Eastern asphaltic crude, and a Canadian asphaltic crude—were blended with dimethyl sulfide.
# A control sample of each crude was prepared containing no dimethyl sulfide, and samples of each crude were prepared and blended with dimethyl sulfide to prepare crude samples containing increasing concentrations of dimethyl sulfide. The samples were heated to 60° C. to dissolve any waxes therein and to permit weighing of a homogeneous liquid. The samples were weighed, allowed to cool overnight, then blended with a selected quantity of dimethyl sulfide. The samples of the crude/dimethyl sulfide blend were then heated to 60° C. and mixed to ensure homogeneous blending of the dimethyl sulfide in the samples. Absolute (dynamic) viscosity measurements of each of the samples were taken using a closed cup rheometer using a PZ39 rotor sensor assembly in the rheometer. Viscosity measurements of each of the samples of the West African waxy crude and the Middle Eastern asphaltic crude were taken at 20° C., 40° C., 60° C., 80° C., and then again at 20° C. after cooling from 80° C., where the second measurement at 20° C. is taken to measure the viscosity without the presence of waxes since wax formation occurs slowly enough to permit viscosity measurement at 20° C. without the presence of wax. Viscosity measurements of each of the samples of the Canadian asphaltic crude were taken at 5° C., 10° C., 20° C., 40° C., 60° C., 80° C., The measured viscosities for each of the crudes are shown in Tables 4, 5, and 6 below.
smiles,measurement,setting,value
"CSC [Dimethyl Sulfide, dimethyl sulfide]",Viscosity of West African Waxy Crude,"1.21 wt. % DMS, 20° C.",125.8 mPa s
same,Viscosity of West African Waxy Crude,"1.21 wt. % DMS, 20° C. after cooling from 80° C.",100.1 mPa s
same,Viscosity of West African Waxy Crude,"1.21 wt. % DMS, 40° C.",30.94 mPa s
same,Viscosity of West African Waxy Crude,"1.21 wt. % DMS, 60° C.",14.66 mPa s
same,Viscosity of West African Waxy Crude,"1.21 wt. % DMS, 80° C.",8.92 mPa s
same,Viscosity of Middle Eastern Asphaltic Crude,"1.3 wt. % DMS, 20° C.",1733.8 mPa s
same,Viscosity of Middle Eastern Asphaltic Crude,"1.3 wt. % DMS, 20° C. after cooling from 80° C.",1624.8 mPa s
same,Viscosity of Middle Eastern Asphaltic Crude,"1.3 wt. % DMS, 40° C.",334.5 mPa s
same,Viscosity of Middle Eastern Asphaltic Crude,"1.3 wt. % DMS, 60° C.",106.7 mPa s
same,Viscosity of Middle Eastern Asphaltic Crude,"1.3 wt. % DMS, 80° C.",44.6 mPa s
same,Viscosity of Topped Canadian Asphaltic Crude,"1.43 wt. % DMS, 20° C.",212525 mPa s
same,Viscosity of Topped Canadian Asphaltic Crude,"1.43 wt. % DMS, 40° C.",14721 mPa s
same,Viscosity of Topped Canadian Asphaltic Crude,"1.43 wt. % DMS, 60° C.",2209 mPa s
same,Viscosity of Topped Canadian Asphaltic Crude,"1.43 wt. % DMS, 80° C.",538 mPa s
same,Viscosity of Topped Canadian Asphaltic Crude,"2.07 wt. % DMS, 20° C.",134880 mPa s
same,Viscosity of Topped Canadian Asphaltic Crude,"2.07 wt. % DMS, 40° C.",10523 mPa s
same,Viscosity of Topped Canadian Asphaltic Crude,"2.07 wt. % DMS, 60° C.",1747 mPa s
same,Viscosity of Topped Canadian Asphaltic Crude,"2.07 wt. % DMS, 80° C.",427 mPa s
same,Viscosity of West African Waxy Crude,"2.48 wt. % DMS, 20° C.",122.3 mPa s
same,Viscosity of West African Waxy Crude,"2.48 wt. % DMS, 20° C. after cooling from 80° C.",89.23 mPa s
same,Viscosity of West African Waxy Crude,"2.48 wt. % DMS, 40° C.",30.53 mPa s
same,Viscosity of West African Waxy Crude,"2.48 wt. % DMS, 60° C.",13.66 mPa s
same,Viscosity of West African Waxy Crude,"2.48 wt. % DMS, 80° C.",8.44 mPa s
same,Viscosity of Middle Eastern Asphaltic Crude,"2.6 wt. % DMS, 20° C.",1026.6 mPa s
same,Viscosity of Middle Eastern Asphaltic Crude,"2.6 wt. % DMS, 20° C. after cooling from 80° C.",881.1 mPa s
same,Viscosity of Middle Eastern Asphaltic Crude,"2.6 wt. % DMS, 40° C.",219.9 mPa s
same,Viscosity of Middle Eastern Asphaltic Crude,"2.6 wt. % DMS, 60° C.",76.5 mPa s
same,Viscosity of Middle Eastern Asphaltic Crude,"2.6 wt. % DMS, 80° C.",34.3 mPa s
same,Viscosity of Topped Canadian Asphaltic Crude,"4.87 wt. % DMS, 20° C.",28720 mPa s
same,Viscosity of Topped Canadian Asphaltic Crude,"4.87 wt. % DMS, 40° C.",3235 mPa s
same,Viscosity of Topped Canadian Asphaltic Crude,"4.87 wt. % DMS, 60° C.",985 mPa s
same,Viscosity of Topped Canadian Asphaltic Crude,"4.87 wt. % DMS, 80° C.",328 mPa s
same,Viscosity of West African Waxy Crude,"5.03 wt. % DMS, 20° C.",78.37 mPa s
same,Viscosity of West African Waxy Crude,"5.03 wt. % DMS, 20° C. after cooling from 80° C.",55.21 mPa s
same,Viscosity of West African Waxy Crude,"5.03 wt. % DMS, 40° C.",20.24 mPa s
same,Viscosity of West African Waxy Crude,"5.03 wt. % DMS, 60° C.",10.45 mPa s
same,Viscosity of West African Waxy Crude,"5.03 wt. % DMS, 80° C.",6.55 mPa s
same,Viscosity of Middle Eastern Asphaltic Crude,"5.3 wt. % DMS, 20° C.",496.5 mPa s
same,Viscosity of Middle Eastern Asphaltic Crude,"5.3 wt. % DMS, 20° C. after cooling from 80° C.",503.5 mPa s
same,Viscosity of Middle Eastern Asphaltic Crude,"5.3 wt. % DMS, 40° C.",134.2 mPa s
same,Viscosity of Middle Eastern Asphaltic Crude,"5.3 wt. % DMS, 60° C.",52.2 mPa s
same,Viscosity of Middle Eastern Asphaltic Crude,"5.3 wt. % DMS, 80° C.",25.5 mPa s
same,Viscosity of Middle Eastern Asphaltic Crude,"7.6 wt. % DMS, 20° C.",288.0 mPa s
same,Viscosity of West African Waxy Crude,"7.60 wt. % DMS, 20° C.",60.92 mPa s
same,Viscosity of Middle Eastern Asphaltic Crude,"7.6 wt. % DMS, 20° C. after cooling from 80° C.",290.0 mPa s
same,Viscosity of West African Waxy Crude,"7.60 wt. % DMS, 20° C. after cooling from 80° C.",40.89 mPa s
same,Viscosity of Middle Eastern Asphaltic Crude,"7.6 wt. % DMS, 40° C.",89.4 mPa s
same,Viscosity of West African Waxy Crude,"7.60 wt. % DMS, 40° C.",17.08 mPa s
same,Viscosity of Middle Eastern Asphaltic Crude,"7.6 wt. % DMS, 60° C.",37.4 mPa s
same,Viscosity of West African Waxy Crude,"7.60 wt. % DMS, 60° C.",9.29 mPa s
same,Viscosity of Middle Eastern Asphaltic Crude,"7.6 wt. % DMS, 80° C.",19.3 mPa s
same,Viscosity of West African Waxy Crude,"7.60 wt. % DMS, 80° C.",6.09 mPa s
same,Viscosity of Topped Canadian Asphaltic Crude,"8.01 wt. % DMS, 20° C.",5799 mPa s
same,Viscosity of Topped Canadian Asphaltic Crude,"8.01 wt. % DMS, 40° C.",982 mPa s
same,Viscosity of Topped Canadian Asphaltic Crude,"8.01 wt. % DMS, 60° C.",275 mPa s
same,Viscosity of Topped Canadian Asphaltic Crude,"8.01 wt. % DMS, 80° C.",106 mPa s
same,Viscosity of Topped Canadian Asphaltic Crude,"9.80 wt. % DMS, 20° C.",2760 mPa s
same,Viscosity of Topped Canadian Asphaltic Crude,"9.80 wt. % DMS, 40° C.",571 mPa s
same,Viscosity of Topped Canadian Asphaltic Crude,"9.80 wt. % DMS, 60° C.",173 mPa s
same,Viscosity of Topped Canadian Asphaltic Crude,"9.80 wt. % DMS, 80° C.",73 mPa s
same,Viscosity of West African Waxy Crude,"9.95 wt. % DMS, 20° C.",44.70 mPa s
same,Viscosity of West African Waxy Crude,"9.95 wt. % DMS, 20° C. after cooling from 80° C.",30.61 mPa s
same,Viscosity of West African Waxy Crude,"9.95 wt. % DMS, 40° C.",13.03 mPa s
same,Viscosity of West African Waxy Crude,"9.95 wt. % DMS, 60° C.",7.58 mPa s
same,Viscosity of West African Waxy Crude,"9.95 wt. % DMS, 80° C.",5.04 mPa s
same,Viscosity of Middle Eastern Asphaltic Crude,"10.1 wt. % DMS, 20° C.",150.0 mPa s
same,Viscosity of Middle Eastern Asphaltic Crude,"10.1 wt. % DMS, 20° C. after cooling from 80° C.",150.5 mPa s
same,Viscosity of Middle Eastern Asphaltic Crude,"10.1 wt. % DMS, 40° C.",52.4 mPa s
same,Viscosity of Middle Eastern Asphaltic Crude,"10.1 wt. % DMS, 60° C.",24.5 mPa s
same,Viscosity of Middle Eastern Asphaltic Crude,"10.1 wt. % DMS, 80° C.",13.5 mPa s
same,Viscosity of Topped Canadian Asphaltic Crude,"14.81 wt. % DMS, 5° C.",1794 mPa s
same,Viscosity of Topped Canadian Asphaltic Crude,"14.81 wt. % DMS, 10° C.",1155 mPa s
same,Viscosity of Topped Canadian Asphaltic Crude,"14.81 wt. % DMS, 20° C.",548 mPa s
same,Viscosity of Topped Canadian Asphaltic Crude,"14.81 wt. % DMS, 40° C.",159 mPa s
same,Viscosity of Topped Canadian Asphaltic Crude,"14.81 wt. % DMS, 60° C.",64 mPa s
same,Viscosity of Topped Canadian Asphaltic Crude,"14.81 wt. % DMS, 80° C.",32 mPa s
same,Viscosity of West African Waxy Crude,"15.13 wt. % DMS, 20° C.",23.96 mPa s
same,Viscosity of West African Waxy Crude,"15.13 wt. % DMS, 20° C. after cooling from 80° C.",17.64 mPa s
same,Viscosity of West African Waxy Crude,"15.13 wt. % DMS, 40° C.",8.32 mPa s
same,Viscosity of West African Waxy Crude,"15.13 wt. % DMS, 60° C.",4.97 mPa s
same,Viscosity of West African Waxy Crude,"15.13 wt. % DMS, 80° C.",3.38 mPa s
same,Viscosity of Middle Eastern Asphaltic Crude,"15.2 wt. % DMS, 20° C.",59.4 mPa s
same,Viscosity of Middle Eastern Asphaltic Crude,"15.2 wt. % DMS, 20° C. after cooling from 80° C.",60.7 mPa s
same,Viscosity of Middle Eastern Asphaltic Crude,"15.2 wt. % DMS, 40° C.",25.2 mPa s
same,Viscosity of Middle Eastern Asphaltic Crude,"15.2 wt. % DMS, 60° C.",13.6 mPa s
same,Viscosity of Middle Eastern Asphaltic Crude,"15.2 wt. % DMS, 80° C.",8.2 mPa s
same,Viscosity of West African Waxy Crude,"19.30 wt. % DMS, 20° C.",15.26 mPa s
same,Viscosity of West African Waxy Crude,"19.30 wt. % DMS, 20° C. after cooling from 80° C.",12.06 mPa s
same,Viscosity of West African Waxy Crude,"19.30 wt. % DMS, 40° C.",6.25 mPa s
same,Viscosity of West African Waxy Crude,"19.30 wt. % DMS, 60° C.",4.05 mPa s
same,Viscosity of West African Waxy Crude,"19.30 wt. % DMS, 80° C.",2.92 mPa s
same,Viscosity of Topped Canadian Asphaltic Crude,"19.78 wt. % DMS, 20° C.",188 mPa s
same,Viscosity of Topped Canadian Asphaltic Crude,"19.78 wt. % DMS, 40° C.",69 mPa s
same,Viscosity of Topped Canadian Asphaltic Crude,"19.78 wt. % DMS, 60° C.",33 mPa s
same,Viscosity of Topped Canadian Asphaltic Crude,"19.78 wt. % DMS, 80° C.",19 mPa s
same,Viscosity of Middle Eastern Asphaltic Crude,"20.1 wt. % DMS, 20° C.",29.9 mPa s
same,Viscosity of Middle Eastern Asphaltic Crude,"20.1 wt. % DMS, 20° C. after cooling from 80° C.",31.0 mPa s
same,Viscosity of Middle Eastern Asphaltic Crude,"20.1 wt. % DMS, 40° C.",14.8 mPa s
same,Viscosity of Middle Eastern Asphaltic Crude,"20.1 wt. % DMS, 60° C.",8.7 mPa s
same,Viscosity of Middle Eastern Asphaltic Crude,"20.1 wt. % DMS, 80° C.",5.7 mPa s
same,Viscosity of Topped Canadian Asphaltic Crude,"29.88 wt. % DMS, 5° C.",113 mPa s
same,Viscosity of Topped Canadian Asphaltic Crude,"29.88 wt. % DMS, 10° C.",81 mPa s
same,Viscosity of Topped Canadian Asphaltic Crude,"29.88 wt. % DMS, 20° C.",51 mPa s
same,Viscosity of Topped Canadian Asphaltic Crude,"29.88 wt. % DMS, 40° C.",22 mPa s
same,Viscosity of Topped Canadian Asphaltic Crude,"29.88 wt. % DMS, 60° C.",13 mPa s
same,Viscosity of Topped Canadian Asphaltic Crude,"29.88 wt. % DMS, 80° C.",8 mPa s
same,Viscosity of Topped Canadian Asphaltic Crude,"39.61 wt. % DMS, 5° C.",23 mPa s
same,Viscosity of Topped Canadian Asphaltic Crude,"39.61 wt. % DMS, 10° C.",20 mPa s
same,Viscosity of Topped Canadian Asphaltic Crude,"39.61 wt. % DMS, 20° C.",14 mPa s
same,Viscosity of Topped Canadian Asphaltic Crude,"39.61 wt. % DMS, 40° C.",8 mPa s
same,Viscosity of Topped Canadian Asphaltic Crude,"39.61 wt. % DMS, 60° C.",6 mPa s
same,Viscosity of Topped Canadian Asphaltic Crude,"39.61 wt. % DMS, 80° C.",4 mPa s
same,"lowering the viscosity of a crude oil, in words","all three crudes, particularly Canadian asphaltenic crude oil",effective for significantly lowering the viscosity of a crude oil
